Patent publication US20250098679A1, “HERBICIDAL PYRIDONE DERIVATIVES” (SYNGENTA CROP PROTECTION AG, priority 2021, published 2025)

How the values were obtained:
Type in all cases: in vivo
Settings in all cases: evaluated after 13 days
[1] = system: Amaranthus palmeri (AMAPA); test: Post-emergence Test, Amaranthus palmeri (AMAPA); set-up: key: 5=81-100%, 4=61-80%, 3=41-60%, 2=21-40%, 1=0-20% damage
In short: (§1)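 Spray application at 1000 g/ha unless otherwise stated. Damage was scored 13 days later as 1 (0-20%) to 5 (81-100%).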

[2] = system: Ipomoea hederacea (IPOHE); test: Pre-emergence Test, Ipomoea hederacea (IPOHE)
[3] = system: Setaria faberi (SETFA); test: Post-emergence Test, Setaria faberi (SETFA); set-up: key to percentage damage caused to the plant, SETFA (five-point scale): 5=81-100%, 4=61-80%, 3=41-60%, 2=21-40%, 1=0-20% damage
In short: as §1

[4] = system: Setaria faberi (SETFA); test: Pre-emergence Test, Setaria faberi (SETFA)
[5] = system: Zea mays (ZEAMX); test: Pre-emergence Test, Zea mays (ZEAMX)
[6] = system: Amaranthus retoflexus (AMARE); test: Pre-emergence Test, Amaranthus retoflexus (AMARE)
[7] = system: Echinochloa crus-galli (ECHCG); test: Post-emergence Test, Echinochloa crus-galli (ECHCG); set-up: key to percentage damage caused to the plant, ECHCG (five-point scale): 5=81-100%, 4=61-80%, 3=41-60%, 2=21-40%, 1=0-20% damage
In short: as §1

[8] = system: Zea mays (ZEAMX); test: Post-emergence Test, Zea mays (ZEAMX); set-up: key to percentage damage caused to the plant, ZEAMX (five-point scale): 5=81-100%, 4=61-80%, 3=41-60%, 2=21-40%, 1=0-20% damage
In short: as §1

[9] = system: Echinochloa crus-galli (ECHCG); test: Pre-emergence Test, Echinochloa crus-galli (ECHCG)
[10] = system: Amaranthus retoflexus (AMARE); test: Post-emergence Test, Amaranthus retoflexus (AMARE); set-up: key to percentage damage caused to the plant, AMARE (five-point scale): 5=81-100%, 4=61-80%, 3=41-60%, 2=21-40%, 1=0-20% damage
In short: as §1

[11] = system: Amaranthus palmeri (AMAPA); test: Pre-emergence Test, Amaranthus palmeri (AMAPA)
[12] = system: Ipomoea hederacea (IPOHE); test: Post-emergence Test, Ipomoea hederacea (IPOHE); set-up: key to percentage damage caused to the plant, IPOHE (five-point scale): 5=81-100%, 4=61-80%, 3=41-60%, 2=21-40%, 1=0-20% damage
In short: as §1

| Compound | percentage damage caused to the plant, AMAPA (five-point scale) ([1]; 1000 g/ha) | Pre-emergence Test IPOHE, percentage damage caused to the plant (five-point scale) ([2]; 250 g/Ha (*)) | percentage damage caused to the plant, SETFA (five-point scale) ([3]; 1000 g/ha) | Pre-emergence Test SETFA, percentage damage caused to the plant (five-point scale) ([4]; 250 g/Ha (*)) | percentage damage caused to the plant, ECHCG (five-point scale) ([7]; 1000 g/ha) | percentage damage caused to the plant, ZEAMX (five-point scale) ([8]; 1000 g/ha) | percentage damage caused to the plant, AMARE (five-point scale) ([10]; 1000 g/ha) | percentage damage caused to the plant, IPOHE (five-point scale) ([12]; 1000 g/ha) | percentage damage caused to the plant, AMAPA (five-point scale) ([1]; 250 g/Ha) | Pre-emergence Test IPOHE, percentage damage caused to the plant (five-point scale) ([2]; 1000 g/ha) | percentage damage caused to the plant, SETFA (five-point scale) ([3]; 250 g/Ha) | Pre-emergence Test SETFA, percentage damage caused to the plant (five-point scale) ([4]; 1000 g/ha) | Pre-emergence Test ZEAMX, percentage damage caused to the plant (five-point scale) ([5]; 1000 g/ha) | Pre-emergence Test AMARE, percentage damage caused to the plant (five-point scale) ([6]; 1000 g/ha) | percentage damage caused to the plant, ECHCG (five-point scale) ([7]; 250 g/Ha) | percentage damage caused to the plant, ZEAMX (five-point scale) ([8]; 250 g/Ha) | Pre-emergence Test ECHCG, percentage damage caused to the plant (five-point scale) ([9]; 1000 g/ha) | percentage damage caused to the plant, AMARE (five-point scale) ([10]; 250 g/Ha) | Pre-emergence Test AMAPA, percentage damage caused to the plant (five-point scale) ([11]; 1000 g/ha) | percentage damage caused to the plant, IPOHE (five-point scale) ([12]; 250 g/Ha) | further results |
| --- | --- | --- | --- | --- | --- | --- | --- | --- | --- | --- | --- | --- | --- | --- | --- | --- | --- | --- | --- | --- | --- |
| CCn1c(Cn2ccc(C(F)(F)F)n2)c(-c2ccc(Cl)cc2)c(=O)c(C(=O)O)c1-c1ccc(Cl)c(Cl)c1 [Compound 21, 5-(4-chlorophenyl)-2-(3,4-dichlorophenyl)-1-ethyl-4-oxo-6-[[3-(trifluoromethyl)pyrazol-1-yl]methyl]pyridine-3-carboxylic acid] | 2 (2=21-40%) | 1 (1=0-20%) | 0 | 0 | 0 | 1 (1=0-20%) | 1 (1=0-20%) | 3 (3=41-60%) |  |  |  |  |  |  |  |  |  |  |  |  | Pre-emergence Test ZEAMX, percentage damage caused to the plant (five-point scale) ([5]; 250 g/Ha (*)): 0; Pre-emergence Test AMARE, percentage damage caused to the plant (five-point scale) ([6]; 250 g/Ha (*)): 0; Pre-emergence Test ECHCG, percentage damage caused to the plant (five-point scale) ([9]; 250 g/Ha (*)): 0; Pre-emergence Test AMAPA, percentage damage caused to the plant (five-point scale) ([11]; 250 g/Ha (*)): 0 |
| CCn1c(Cn2ccc(C(F)(F)F)n2)cc(=O)c(C(=O)OC)c1-c1ccc(Cl)cc1 [Compound 22, methyl 2-(4-chlorophenyl)-1-ethyl-4-oxo-6-[[3-(trifluoromethyl)pyrazol-1-yl]methyl]pyridine-3-carboxylate] | 1 (1=0-20%) | 0 | 3 (3=41-60%) | 4 (4=61-80%) | 3 (3=41-60%) | 1 (1=0-20%) | 1 (1=0-20%) | 2 (2=21-40%) | 1 (1=0-20%) | 0 | 3 (3=41-60%) | 4 (4=61-80%) | 0 | 0 | 0 | 0 | 3 (3=41-60%) | 1 (1=0-20%) | 0 | 1 (1=0-20%) | Pre-emergence Test ZEAMX, percentage damage caused to the plant (five-point scale) ([5]; 250 g/Ha (*)): 0; Pre-emergence Test AMARE, percentage damage caused to the plant (five-point scale) ([6]; 250 g/Ha (*)): 0; Pre-emergence Test ECHCG, percentage damage caused to the plant (five-point scale) ([9]; 250 g/Ha (*)): 1 (1=0-20%); Pre-emergence Test AMAPA, percentage damage caused to the plant (five-point scale) ([11]; 250 g/Ha (*)): 0 |
| CCn1c(Cn2ccc(C(F)(F)F)n2)cc(=O)c(C(=O)O)c1-c1cccc(Cl)c1 [Compound 25, 2-(3-chlorophenyl)-1-ethyl-4-oxo-6-[[3-(trifluoromethyl)pyrazol-1-yl]methyl]pyridine-3-carboxylic acid] | 2 (2=21-40%) |  | 4 (4=61-80%) |  | 4 (4=61-80%) | 3 (3=41-60%) | 2 (2=21-40%) | 4 (4=61-80%) | 2 (2=21-40%) | 1 (1=0-20%) | 4 (4=61-80%) | 5 (5=81-100%) | 1 (1=0-20%) | 2 (2=21-40%) | 3 (3=41-60%) | 0 | 5 (5=81-100%) | 2 (2=21-40%) | 2 (2=21-40%) | 4 (4=61-80%) |  |
| CCOC(=O)c1c(-c2cccc(Cl)c2)n(CC)c(Cn2ccc(C(F)(F)F)n2)cc1=O [Compound 26, ethyl 2-(3-chlorophenyl)-1-ethyl-4-oxo-6-[[3-(trifluoromethyl)pyrazol-1-yl]methyl]pyridine-3-carboxylate] | 2 (2=21-40%) |  | 1 (1=0-20%) |  | 1 (1=0-20%) | 2 (2=21-40%) | 1 (1=0-20%) | 3 (3=41-60%) | 1 (1=0-20%) | 0 | 1 (1=0-20%) | 3 (3=41-60%) | 1 (1=0-20%) | 0 | 1 (1=0-20%) | 1 (1=0-20%) | 2 (2=21-40%) | 1 (1=0-20%) | 0 | 1 (1=0-20%) |  |
| CCOC(=O)c1c(-c2ccc(Cl)c(Cl)c2)n(CC)c(Cn2ccc(Cl)n2)c(Br)c1=O [Compound 27, ethyl 5-bromo-6-[(3-chloropyrazo1-1-yl)methyl]-2-(3,4-dichlorophenyl)-1-ethyl-4-oxo-pyridine-3-carboxylate] | 0 |  | 0 |  | 0 | 0 | 0 | 0 |  | 0 |  | 0 | 0 | 1 (1=0-20%) |  |  | 0 |  | 0 |  |  |
